Experimental data from article PMC11847724 (Neoplasia (New York, N.Y.), 2025).

Legend:
[1] = Plasma pharmacokinetics of ESK-440 and metabolite CEP-38901; assay type: in vivo, human
[2] = system: FAK; conditions: preclinical studies ref 9, 10; cited from earlier work
[3] = system: ALK- and FAK-driven xenograft models; conditions: multiple ALK- and FAK-driven xenograft models ref 9, 10; cited from earlier work

Q: Which results are given for CNC(=O)c1ccccc1Nc1nc(Nc2ccc3c(c2OC)CCC[C@H](N2CCN(CCO)CC2)C3)ncc1Cl [ESK-440]?
A: Robs (observed accumulation ratio = AUCτ on day 15/AUC0-24 on day 1) ([1]; 25 mg/day (N = 3)): 3.3 (0.76); Robs (observed accumulation ratio = AUCτ on day 15/AUC0-24 on day 1) ([1]; 50 mg/day (N = 3)): 2.2 (1.11); Robs (observed accumulation ratio = AUCτ on day 15/AUC0-24 on day 1) ([1]; 100 mg/day (N = 3)): 4.2 (3.47); Robs (observed accumulation ratio = AUCτ on day 15/AUC0-24 on day 1) ([1]; 150 mg/day (N = 3)): 3.1 (0.17); Robs (observed accumulation ratio = AUCτ on day 15/AUC0-24 on day 1) ([1]; 250 mg/day (N = 4)): 2.9 (0.81); Robs (observed accumulation ratio = AUCτ on day 15/AUC0-24 on day 1) ([1]; 350 mg/day (N = 4)): 3.3 (0.63); Robs (observed accumulation ratio = AUCτ on day 15/AUC0-24 on day 1) ([1]; 500 mg/day (N = 4)): 2.4 (0.43); Robs (observed accumulation ratio = AUCτ on day 15/AUC0-24 on day 1) ([1]; 700 mg/day (N = 5)): 2.2 (0.74); dose dependence of Cmax and AUC0-24 ([1]; day 1 and day 15, up to 500 mg/day): dose-proportional; half-life ([1]; human, plasma, oral): 9.4 to 20.8 h; AUC ([1]; human, plasma, oral, 25 mg/day): 666 ng·h/mL; AUC(0-t) ([1]; human, plasma, oral, 25 mg/day, AUC0-24, Day 1, 25 mg/day (N = 3)): 222 ng·h/mL; AUC(0-t) ([1]; human, plasma, oral, 25 mg/day, AUC0-t, Day 1, 25 mg/day (N = 3)): 223 ng·h/mL; AUC(0-t) ([1]; human, plasma, oral, 25 mg/day, AUC0-t, Day 15, 25 mg/day (N = 3)): 666 ng·h/mL; Cmax ([1]; human, plasma, oral, 25 mg/day, Day 1, 25 mg/day (N = 3)): 20.7 ng/mL; Cmax ([1]; human, plasma, oral, 25 mg/day, Day 15, 25 mg/day (N = 3)): 36.7 ng/mL; Tmax ([1]; human, plasma, oral, 25 mg/day, tmax, Day 1, 25 mg/day (N = 3), median (range)): 3 h; Tmax ([1]; human, plasma, oral, 25 mg/day, tmax, Day 15, 25 mg/day (N = 3), median (range)): 3 h; AUC ([1]; human, plasma, oral, 50 mg/day): 995 ng·h/mL; AUC(0-t) ([1]; human, plasma, oral, 50 mg/day, AUC0-24, Day 1, 50 mg/day (N = 3)): 508 ng·h/mL; AUC(0-t) ([1]; human, plasma, oral, 50 mg/day, AUC0-t, Day 1, 50 mg/day (N = 3)): 517 ng·h/mL; AUC(0-t) ([1]; human, plasma, oral, 50 mg/day, AUC0-t, Day 15, 50 mg/day (N = 3)): 1020 ng·h/mL; Cmax ([1]; human, plasma, oral, 50 mg/day, Day 1, 50 mg/day (N = 3)): 38.1 ng/mL; Cmax ([1]; human, plasma, oral, 50 mg/day, Day 15, 50 mg/day (N = 3)): 55.6 ng/mL; Tmax ([1]; human, plasma, oral, 50 mg/day, tmax, Day 1, 50 mg/day (N = 3), median (range)): 3 h; Tmax ([1]; human, plasma, oral, 50 mg/day, tmax, Day 15, 50 mg/day (N = 3), median (range)): 3.9 h; AUC ([1]; human, plasma, oral, 100 mg/day): 5420 ng·h/mL; AUC(0-t) ([1]; human, plasma, oral, 100 mg/day, AUC0-24, Day 1, 100 mg/day (N = 3)): 1480 ng·h/mL; AUC(0-t) ([1]; human, plasma, oral, 100 mg/day, AUC0-t, Day 1, 100 mg/day (N = 3)): 1540 ng·h/mL; AUC(0-t) ([1]; human, plasma, oral, 100 mg/day, AUC0-t, Day 15, 100 mg/day (N = 3)): 5660 ng·h/mL; Cmax ([1]; human, plasma, oral, 100 mg/day, Day 1, 100 mg/day (N = 3)): 97.3 ng/mL; Cmax ([1]; human, plasma, oral, 100 mg/day, Day 15, 100 mg/day (N = 3)): 273 ng/mL; Tmax ([1]; human, plasma, oral, 100 mg/day, tmax, Day 1, 100 mg/day (N = 3), median (range)): 2 h; Tmax ([1]; human, plasma, oral, 100 mg/day, tmax, Day 15, 100 mg/day (N = 3), median (range)): 4 h; AUC ([1]; human, plasma, oral, 150 mg/day): 4980 ng·h/mL; AUC(0-t) ([1]; human, plasma, oral, 150 mg/day, AUC0-24, Day 1, 150 mg/day (N = 3)): 1580 ng·h/mL; AUC(0-t) ([1]; human, plasma, oral, 150 mg/day, AUC0-t, Day 1, 150 mg/day (N = 3)): 1560 ng·h/mL; AUC(0-t) ([1]; human, plasma, oral, 150 mg/day, AUC0-t, Day 15, 150 mg/day (N = 3)): 4950 ng·h/mL; Cmax ([1]; human, plasma, oral, 150 mg/day, Day 1, 150 mg/day (N = 3)): 128 ng/mL; Cmax ([1]; human, plasma, oral, 150 mg/day, Day 15, 150 mg/day (N = 3)): 321 ng/mL; Tmax ([1]; human, plasma, oral, 150 mg/day, tmax, Day 1, 150 mg/day (N = 3), median (range)): 3.1 h; Tmax ([1]; human, plasma, oral, 150 mg/day, tmax, Day 15, 150 mg/day (N = 3), median (range)): 2.1 h; AUC ([1]; human, plasma, oral, 250 mg/day): 13300 ng·h/mL; AUC(0-t) ([1]; human, plasma, oral, 250 mg/day, AUC0-24, Day 1, 250 mg/day (N = 4)): 4740 ng·h/mL; AUC(0-t) ([1]; human, plasma, oral, 250 mg/day, AUC0-t, Day 1, 250 mg/day (N = 4)): 4850 ng·h/mL; AUC(0-t) ([1]; human, plasma, oral, 250 mg/day, AUC0-t, Day 15, 250 mg/day (N = 4)): 14200 ng·h/mL; Cmax ([1]; human, plasma, oral, 250 mg/day, Day 1, 250 mg/day (N = 4)): 435 ng/mL; Cmax ([1]; human, plasma, oral, 250 mg/day, Day 15, 250 mg/day (N = 4)): 732 ng/mL; Tmax ([1]; human, plasma, oral, 250 mg/day, tmax, Day 1, 250 mg/day (N = 4), median (range)): 3.5 h; Tmax ([1]; human, plasma, oral, 250 mg/day, tmax, Day 15, 250 mg/day (N = 4), median (range)): 3.5 h; AUC ([1]; human, plasma, oral, 350 mg/day): 16800 ng·h/mL; AUC(0-t) ([1]; human, plasma, oral, 350 mg/day, AUC0-24, Day 1, 350 mg/day (N = 4)): 5180 ng·h/mL; AUC(0-t) ([1]; human, plasma, oral, 350 mg/day, AUC0-t, Day 1, 350 mg/day (N = 4)): 5320 ng·h/mL; AUC(0-t) ([1]; human, plasma, oral, 350 mg/day, AUC0-t, Day 15, 350 mg/day (N = 4)): 17900 ng·h/mL; Cmax ([1]; human, plasma, oral, 350 mg/day, Day 1, 350 mg/day (N = 4)): 334 ng/mL; Cmax ([1]; human, plasma, oral, 350 mg/day, Day 15, 350 mg/day (N = 4)): 869 ng/mL; Tmax ([1]; human, plasma, oral, 350 mg/day, tmax, Day 1, 350 mg/day (N = 4), median (range)): 5 h; Tmax ([1]; human, plasma, oral, 350 mg/day, tmax, Day 15, 350 mg/day (N = 4), median (range)): 4 h; AUC ([1]; human, plasma, oral, 500 mg/day): 36500 ng·h/mL; AUC(0-t) ([1]; human, plasma, oral, 500 mg/day, AUC0-24, Day 1, 500 mg/day (N = 5)): 17700 ng·h/mL; AUC(0-t) ([1]; human, plasma, oral, 500 mg/day, AUC0-t, Day 1, 500 mg/day (N = 5)): 17800 ng·h/mL; AUC(0-t) ([1]; human, plasma, oral, 500 mg/day, AUC0-t, Day 15, 500 mg/day (N = 4)): 37600 ng·h/mL; Cmax ([1]; human, plasma, oral, 500 mg/day, Day 1, 500 mg/day (N = 5)): 1160 ng/mL; Cmax ([1]; human, plasma, oral, 500 mg/day, Day 15, 500 mg/day (N = 4)): 1910 ng/mL; Tmax ([1]; human, plasma, oral, 500 mg/day, tmax, Day 1, 500 mg/day (N = 5), median (range)): 4.1 h; Tmax ([1]; human, plasma, oral, 500 mg/day, tmax, Day 15, 500 mg/day (N = 4), median (range)): 6.8 h; AUC ([1]; human, plasma, oral, 700 mg/day): 25700 ng·h/mL; AUC(0-t) ([1]; human, plasma, oral, 700 mg/day, AUC0-24, Day 1, 700 mg/day (N = 5)): 11300 ng·h/mL; AUC(0-t) ([1]; human, plasma, oral, 700 mg/day, AUC0-t, Day 1, 700 mg/day (N = 5)): 11500 ng·h/mL; AUC(0-t) ([1]; human, plasma, oral, 700 mg/day, AUC0-t, Day 15, 700 mg/day (N = 5)): 25900 ng·h/mL; Cmax ([1]; human, plasma, oral, 700 mg/day, Day 1, 700 mg/day (N = 5)): 839 ng/mL; Cmax ([1]; human, plasma, oral, 700 mg/day, Day 15, 700 mg/day (N = 5)): 1310 ng/mL; Tmax ([1]; human, plasma, oral, 700 mg/day, tmax, Day 1, 700 mg/day (N = 5), median (range)): 4 h; Tmax ([1]; human, plasma, oral, 700 mg/day, tmax, Day 15, 700 mg/day (N = 5), median (range)): 6.1 h; Tmax ([1]; human, plasma, oral, median tmax, range across dose levels, day 1): 2 to 5 h; Tmax ([1]; human, plasma, oral, median tmax, range across dose levels, day 15): 2.1 to 6.8 h; potency [2]: low nanomolar; antitumor efficacy [3]: dose-dependent antitumor efficacy
